# In patent publication US6699384B1, “Compact electrochemical sensor system and method for field testing for metals in saliva or other fluids” (priority 1999, dated 2004):
# “And” between values parts separate entries of the source, which are not always exact repeats. Equal values may be shown once.
# Assays:
# [1] = Pb in whole blood and saliva of rats after single acute oral doses of Pb-acetate; type: in vivo, Fisher 344 rats
# Text: Different sample pretreatment procedures for the effective release of the Pb from its binding sites in the biological fluids have been previously reviewed. (Wang, J.: Stripping analysis of trace metals in human body fluids. J. Electroanal. Chem., 139: 225-232 (1982)). It was reported that 0.5 M HCl can effectively release Pb^2+ ion from blood samples. (Nagler, R. M., Baum, B. J., and Fox, P. C.: Effect of X irradiation on the function of rat salivary glands at 3 and 40 days. Rad. Res., 136: 392-396 (1993)). In our work saliva sample was diluted 5 times with acidic solution to a final concentration of 0.5 M HCl. The sample solution was then loaded in sample reservoir and was delivered by the integrated micro-pump. The sample solution flowed across a mercury (Hg)-film working electrode and exited through an outflow groove positioned directly across the Pt auxiliary electrode. Square wave anodic stripping voltametry (SWASV) was utilized for quantitation of Pb in the specimens. For Pb detection, a constant potential of −1.10 V was applied to the glassy carbon Hg-film electrode. When sample solution flowed over the electrode surface, Pb^2+ was reduced and accumulated. After a 3-min accumulation period, the potential of the Hg-film electrode was scanned from −1.10 V to −0.10 V. To eliminate the sample matrix effect for blood and saliva samples, after the accumulation period, a clean solution (0.5 M HCl) was pumped from another reservoir and replaced the sample matrix, then the stripping analysis was performed. After each measurement the Pb was stripped from the electrode surface and the sensor was then available for analysis of the next specimen.
# In order to validate the capability of the micro-analytical detection system to quantify Pb in biological specimens, rat studies were conducted using single acute oral doses of Pb-acetate. Adult male Fisher 344 rats were obtained from Charles River Laboratory and ranged from ˜0.230 to 0.260 kg of body weight when used. Groups of rats (3-5 animals/dose) were administered an aqueous solution of Pb-acetate by oral gavage at doses of 0, 20, 50, 100, 200 and 500 mg/kg of body weight. At ˜24 hr post-dosing the rats were anesthetized with an ip injection of ketamine (87 mg/kg):xylazine (13 mg/kg). In addition, each rat was given an ip injection of the cholinergic agonist pilocarpine (1 mg/kg) to induce salivation. Saliva was then collected from each rat, using a glass capillary tube, for approximately 30-min (˜1-2 mL saliva) at which time the rats were exsanguinated by cardiac puncture. Whole blood and saliva specimens were weighed and stored frozen (−80° C.) until the Pb analysis was conducted.
# The concentration of Pb in the specimens was determined by inductively coupled plasma/mass spectrometry (ICP-MS). […]
# [2] = Rate of salivation during pilocarpine treatment; type: in vivo, Fisher 344 rats; conditions: rat, pilocarpine 1 mg/kg ip
# Experimental: In order to validate the capability of the micro-analytical detection system to quantify Pb in biological specimens, rat studies were conducted using single acute oral doses of Pb-acetate. Adult male Fisher 344 rats were obtained from Charles River Laboratory and ranged from ˜0.230 to 0.260 kg of body weight when used. Groups of rats (3-5 animals/dose) were administered an aqueous solution of Pb-acetate by oral gavage at doses of 0, 20, 50, 100, 200 and 500 mg/kg of body weight. At ˜24 hr post-dosing the rats were anesthetized with an ip injection of ketamine (87 mg/kg):xylazine (13 mg/kg). […]
# A PBPK model describing the disposition of Pb in the rat was modified to accommodate a saliva compartment. In general, the PBPK model structure and parameter estimations were as previously described, and the reader is referred to O'Flagherty for a detailed description of the model. […] For simplification the model assumes a constant rate of saliva secretion based on the measured rate of salivation during pilocarpine treatment (0.048 L/day), recognizing that this represents an over estimation of normal saliva flow. […] The fraction of cardiac output to the saliva gland and 1st order absorption rate for intraperitoneal (ip) Pb administration were determined by fitting the data of Mobarak and P'an. […]
Compound,"blood Pb concentration ([1]; 500 mg/kg oral dose group, 24 hr post-dosing, saliva response non-linear relative to blood)","Pb in rat saliva, Results of ICP/MS ([1]; rat saliva ~24 hr after oral gavage of Pb-acetate, ICP-MS after acid digestion, individual samples 1-3)","Pb in rat saliva, Results of micro Analytical System ([1]; rat saliva ~24 hr after oral gavage of Pb-acetate, SWASV on Hg-film electrode, individual samples 1-3)","saliva Pb as percentage of the concentration in the blood ([1]; rat, oral Pb-acetate, ~24 hr post-dosing)",rate of saliva secretion [2]
"CC(=O)[O-].CC(=O)[O-].[Pb+2] [Pb, Pb-acetate]",exceeding 0.7 mg/L,99 ppb and 150 ppb and 116 ppb,80 ppb and 108 ppb and 111 ppb,8.5%-9,–
CC[C@@H]1C(=O)OC[C@@H]1Cc1cncn1C [pilocarpine],–,–,–,–,0.048 L/day
